Results reported in patent publication US9657073B2, “Inhibitors of Bcl-2” (Case Western Reserve University, priority 2010, dated 2017).

Tests used:
Jurkat cells = test: Single cell digital imaging of intracellular Ca2+ (Fura-2); type: cell-based, human; details: 10 μM peptide, Jurkat, FIG. 5
Experimental: (§1) WEHI7.2 cells were cultured in DMEM supplemented with 10% fetal calf serum, L-glutamine (2 mM), and nonessential amino acids (100 μM). Transfections of WEHI7.2 cells with expression vectors encoding wild type Bcl-2 and Bcl-2RS/GG were described previously. Jurkat cells and RS11846 cells were cultured in RPMI medium supplemented with 10% fetal bovine serum, L-glutamine (2 mM), and nonessential amino acids (100 μM). Cells were maintained in 5% carbon dioxide at high humidity.
(§2) Methods of Ca^2+ imaging, described in detail previously, were employed here with only minor modification. Briefly, cells adhered to poly-L-lysine-coated coverslips (35-mm coverslip dishes, MatTek Corp., Ashland, Mass.) were loaded with 1 μM Fura-2 AM for 45 min at 25° C. in extracellular buffer (ECB) (130 mM NaCl, 5 mM KCl, 1.5 mM CaCl2, 1 mM MgCl2, 25 mM Hepes, pH 7.5, 1 mg/ml BSA, and 5 mM glucose). The buffer was replaced with fresh ECB and the incubation continued for […] at 25° C. to permit de-esterification. Culture dishes were mounted on the non-heated stage of an inverted microscope (Olympus CKX41) equipped with a 20× Fluor objective. Excitation light was alternated between 340 and 380 nm by a filter wheel (Sutter Instrument Co.), with 0.8 sec and 0.2 sec exposure times respectively, and emitted light was filtered at >510 nm and collected with an intensified charge-coupled device camera (Cooke 12 bit VGA). The video signal was digitized using InCyt Im2 software (Intracellular Imaging) and subsequently processed using Microsoft Excel. To determine Rmin cells were perfused with ECB deficient in Ca^2+ and supplemented with 4 mM EGTA and 10 μM ionomycin. Rmax was obtained by perfusing cells with ECB supplemented with 4 mM CaCl2 and 10 μM ionomycin. […] In most experiments peptides were fused with the cell penetrating peptide of HIV TAT to facilitate uptake by cells. In some experiments peptides, without linkage to TAT, were delivered into cells using Chariot reagent (Active Motif) as previously described. Xestospongin C (Enzo Life Sciences International) and U73122 (Sigma), both dissolved in DMSO, were added to cells 30 mM prior to Ca^2+ measurements.

RS11846 cells = test: as above; type: cell-based, human; details: RS11846, FIG. 6
Experimental: as §1, §2

[1] = system: triple IP3R knockout DT40 cells; test: as above; type: cell-based; details: 5 μM peptide, TKO DT40, FIG. 8C
Experimental: as §2, with “In some experiments peptides, without linkage to TAT, were delivered into cells using Chariot reagent (Active Motif) as previously described. Xestospongin C (Enzo Life Sciences International) and U73122 (Sigma), both dissolved in DMSO, were added to cells 30 mM prior to Ca^2+ measurements.” left out

wild type DT40 cells = test: as above; type: cell-based; details: 5 μM peptide, DT40 expressing all three IP3R isoforms, FIG. 8B
Experimental: as §2, with “In some experiments peptides, without linkage to TAT, were delivered into cells using Chariot reagent (Active Motif) as previously described. Xestospongin C (Enzo Life Sciences International) and U73122 (Sigma), both dissolved in DMSO, were added to cells 30 mM prior to Ca^2+ measurements.” left out

primary CLL cells [2] = test: as above; type: cell-based, human; details: 10 μM peptide
From the text: (§3) Lymphocytes were freshly separated from heparinized peripheral blood obtained from normal adult volunteers or adult patients with chronic lymphocytic leukemia (CLL) meeting standard diagnostic guidelines. Patients had either never received treatment or had received treatment over two years prior to obtaining samples. We conformed to all guidelines and regulations in accordance with Internal Review Board protocols ICC2902/11-02-28 (Case Western Reserve University Cancer Center/University Hospitals of Cleveland Ireland Cancer Center). Cells were separated by centrifugation through Ficoll-Hypaque and suspended in RPMI medium supplemented with 10% fetal bovine serum, L-glutamine (2 mM), and nonessential amino acids (100 μM) at a density of 2 million cells/ml. Normal CD19+ B cells were pooled from healthy individuals between 26 and 32 years of age, in accordance with IRB-approval (as above). Mononuclear cells were separated by Ficoll-Hypaque centrifugation, and further isolation of B and T cells was achieved by magnetic separation using CD19 microbeads (Miltenyi Biotec, Bergisch Gladbach, Germany).
as §2

primary CLL cells [3] = test: Apoptosis and cell death assays (trypan blue, propidium iodide, Hoechst nuclear morphology, Annexin V); type: cell-based, human; details: 24 hr
From the text: as §3, with “Patients had either never received treatment or had received treatment over two years prior to obtaining samples.” left out
Apoptosis was quantified according to apoptotic nuclear morphology and by detection of phosphatidylserine exposure on the plasma membrane. […] Images were obtained using a chargecoupled device camera (Hamamatsu Photonics, Shizuoka, Japan) and digitally converted by Simple PCI software (Hamamatsu Photonics). Membrane translocation of phosphatidylserine was detected by Annexin V staining. Annexin V-positive cells were assessed by flow cytometry using an ARIA flow cytometer (Beckman Coulter, Pasadena, Calif., USA). All flow cytometry data were analyzed using FlowJo 8.8.4 for Macintosh (Treestar, Ashland, Oreg., USA). Dead cells were identified according to their inability to exclude trypan blue dye or propidium iodide. Trypan blue dye uptake into cells was detected by light microscopy using a 40× objective and quantified by counting up to 400 cells. Propidium iodide uptake was quantified by flow cytometry in association with the Annexin V measurement described above.

multiple myeloma cells = test: Killing of multiple myeloma cells; type: cell-based; details: FIG. 17

“TAT-IDPDD/AA: TAT-IDP analogue; DD/AA substitution eliminates the predicted aspartyl protease cleavage site (RKKRRQRRRGGNVYTEIKCNSLLPLAAIVRV)” was tested, and the “amplitude and frequency of Ca2+ oscillations compared with TAT-IDP” value (Jurkat cells) was “much higher”, the “activity (Ca2+ oscillations) compared to TAT-IDP” value (RS11846 cells) was “increased activity” and the “induction of Ca2+ oscillations compared with wild type DT40” value [1] was “significantly less”. For the same substance, the “induction of Ca2+ oscillations” value (wild type DT40 cells) was “induced Ca^2+ oscillations”, the “CLL cells with one or two high amplitude spikes associated with prolonged basal Ca2+ elevation” value (primary CLL cells [2]; 90 min) was 28±5% and the “CLL cells with prolonged Ca2+ oscillations without baseline Ca2+ elevation” value (primary CLL cells [2]; 90 min) was 6±2%. The “CLL cells with relatively brief burst of Ca2+ oscillations associated with prolonged basal Ca2+ elevation” value (primary CLL cells [2]; 90 min) was 17±4%, the “amplitude of Ca2+ peaks compared to TAT-IDP” value (primary CLL cells [2]; FIG. 10) was “significantly higher” and the “CLL cells with Ca2+ elevation” value (primary CLL cells [2]; recordings typically 90 min, FIG. 9) was 51 ±5%. For the same substance, the “apoptosis induction in CLL cells” value (primary CLL cells [3]; 10 μM peptide, Figs. 12-15) was “substantial apoptosis”, the “sensitivity of CLL cells to apoptosis induction relative to normal peripheral blood lymphocytes” value (primary CLL cells [3]; propidium iodide exclusion by flow cytometry, FIG. 16) was “over 6 fold” and the “killing of multiple myeloma cells” value (multiple myeloma cells) was “kills multiple myeloma cells”.
